From ChEMBL document CHEMBL5052856, “Inhibitors of apol1 and methods of using same” (2021)

Legend:
Apolipoprotein L1 = Apolipoprotein L1 (Homo sapiens, UniProt O14791); assay: Inhibition of APOL1 G1 variant in human HEK293-T-REx cells measured by Thallium assay; type: cell-based
[1] = test system: Trypanosoma brucei brucei; assay: Antitrypanosomal activity against Trypanosoma brucei brucei assessed as trypanosome lysis using recombinant APOL1 protein G1 variant and measured by Alamar blue based fluoresence assay; type: functional, organism-based

Structure (SMILES)	IC50 (Apolipoprotein L1) [µM]	IC50 [1] [µM]
O=C1CC[C@H](NC(=O)[C@H]2C[C@H](c3c(-c4ccc(F)cc4)[nH]c4c(F)cc(F)cc43)C2)C1	0.00025	0.25
O=C1CCC(NC(=O)[C@H]2C[C@H](c3c(-c4ccc(F)cc4)[nH]c4c(F)cc(F)cc43)C2)C1 (stereo partly drawn)	> 1	> 1
O=C([C@H]1C[C@H](c2c(-c3ccc(F)cc3)[nH]c3c(F)cc(F)cc32)C1)N1CCN(CCO)CC1	> 1	> 1
CCN(CCO)C(=O)[C@H]1C[C@H](c2c(-c3ccc(F)cc3)[nH]c3c(F)cc(F)cc32)C1	0.00025	0.25
CC(CO)N1CCN(C(=O)[C@H]2C[C@H](c3c(-c4ccc(F)cc4)[nH]c4c(F)cc(F)cc43)C2)CC1 (stereo partly drawn)	> 1	> 1
O=C([C@H]1C[C@H](c2c(-c3ccc(F)cc3)[nH]c3c(F)cc(F)cc32)C1)N(CCO)CCCO	> 1	0.25
O=C1C[C@H](NC(=O)[C@H]2C[C@H](c3c(-c4ccc(F)cc4)[nH]c4c(F)cc(F)cc43)C2)C(=O)N1	< 0.25	< 0.25
CC(C)N(CCO)C(=O)[C@H]1C[C@H](c2c(-c3ccc(F)cc3)[nH]c3c(F)cc(F)cc32)C1	> 1	0.25
CN(CC(O)CO)C(=O)[C@H]1C[C@H](c2c(-c3ccc(F)cc3)[nH]c3c(F)cc(F)cc32)C1 (stereo partly drawn)	> 1	0.25
O=C([C@H]1C[C@H](c2c(-c3ccc(F)cc3)[nH]c3c(F)cc(F)cc32)C1)N1CC(O)C(CO)C1 (stereo partly drawn)	> 1	0.25
Cc1noc(CNC(=O)[C@H]2C[C@H](c3c(-c4ccc(F)cc4)[nH]c4c(F)cc(F)cc43)C2)n1	< 0.25	< 0.25
CC(O)CN(CCO)C(=O)[C@H]1C[C@H](c2c(-c3ccc(F)cc3)[nH]c3c(F)cc(F)cc32)C1 (stereo partly drawn)	0.00025	< 0.25
O=C([C@H]1C[C@H](c2c(-c3ccc(F)cc3)[nH]c3c(F)cc(F)cc32)C1)N1CCCC[C@H]1CO	> 1	0.25
O=C([C@H]1C[C@H](c2c(-c3ccc(F)cc3)[nH]c3c(F)cc(F)cc32)C1)N1CCCC[C@@H]1CCO	> 1	> 1
O=C([C@H]1C[C@H](c2c(-c3ccc(F)cc3)[nH]c3c(F)cc(F)cc32)C1)N1CCCCC1CO (stereo partly drawn)	> 1	0.25
O=C1C[C@@H](NC(=O)[C@H]2C[C@H](c3c(-c4ccc(F)cc4)[nH]c4c(F)cc(F)cc43)C2)C(=O)N1	< 0.25	< 0.25
NC(=O)[C@H]1C[C@H](c2c(-c3ccc(F)cc3)[nH]c3c(F)cc(F)cc32)C1	0.00025	< 0.25
O=C(NCCOCCO)[C@H]1C[C@H](c2c(-c3ccc(F)cc3)[nH]c3c(F)cc(F)cc32)C1	< 0.25	< 0.25
NC(=O)[C@H]1CCCN1C(=O)[C@H]1C[C@H](c2c(-c3ccc(F)cc3)[nH]c3c(F)cc(F)cc32)C1	0.00025	> 1
O=C([C@H]1C[C@H](c2c(-c3ccc(F)cc3)[nH]c3c(F)cc(F)cc32)C1)N1CCO[C@H](CO)C1	> 1	> 1
CC1(C)CN(C(=O)[C@H]2C[C@H](c3c(-c4ccc(F)cc4)[nH]c4c(F)cc(F)cc43)C2)CCC1O (stereo partly drawn)	> 1	> 1
Cn1cncc1CNC(=O)[C@H]1C[C@H](c2c(-c3ccc(F)cc3)[nH]c3c(F)cc(F)cc32)C1	> 1	0.25

Structure (SMILES)	IC50 (Apolipoprotein L1) [µM]	IC50 [1] [µM]
CC1(O)CC(C(=O)N2CCN(C(=O)[C@H]3C[C@H](c4c(-c5ccc(F)cc5)[nH]c5c(F)cc(F)cc54)C3)CC2(C)C)C1 (stereo partly drawn)	> 1	> 1
O=C([C@H]1C[C@H](c2c(-c3ccc(F)cc3)[nH]c3c(F)cc(F)cc32)C1)N1CCCC(CCO)C1 (stereo partly drawn)	> 1	> 1
O=C([C@H]1C[C@H](c2c(-c3ccc(F)cc3)[nH]c3c(F)cc(F)cc32)C1)N1CCCC(CO)C1 (stereo partly drawn)	> 1	> 1
NC(=O)[C@@H]1CCN(C(=O)[C@H]2C[C@H](c3c(-c4ccc(F)cc4)[nH]c4c(F)cc(F)cc43)C2)C1	> 1	> 1
O=C([C@H]1C[C@H](c2c(-c3ccc(F)cc3)[nH]c3c(F)cc(F)cc32)C1)N1CCOC(O)C1 (stereo partly drawn)	0.00025	< 0.25
CCC1(O)CN(C(=O)[C@H]2C[C@H](c3c(-c4ccc(F)cc4)[nH]c4c(F)cc(F)cc43)C2)C1	> 1	> 1
O=C(NCc1nnco1)[C@H]1C[C@H](c2c(-c3ccc(F)cc3)[nH]c3c(F)cc(F)cc32)C1	0.00025	< 0.25
O=C(NC[C@H](O)C(F)(F)F)[C@H]1C[C@H](c2c(-c3ccc(F)cc3)[nH]c3c(F)cc(F)cc32)C1	0.00025	< 0.25
O=C1NCC[C@@H]1NC(=O)[C@H]1C[C@H](c2c(-c3ccc(F)cc3)[nH]c3c(F)cc(F)cc32)C1	0.00025	0.25
O=C(N[C@@H]1CCC[C@H]1O)[C@H]1C[C@H](c2c(-c3ccc(F)cc3)[nH]c3c(F)cc(F)cc32)C1	> 1	> 1
O=C([C@H]1C[C@H](c2c(-c3ccc(F)cc3)[nH]c3c(F)cc(F)cc32)C1)N1CC(OCC2CCCO2)C1 (stereo partly drawn)	> 1	> 1
O=C(N[C@H](CO)C(F)(F)F)[C@H]1C[C@H](c2c(-c3ccc(F)cc3)[nH]c3c(F)cc(F)cc32)C1	0.00025	< 0.25
O=C([C@H]1C[C@H](c2c(-c3ccc(F)cc3)[nH]c3c(F)cc(F)cc32)C1)N1CCCC(O)C1 (stereo partly drawn)	> 1	0.25
NC(=O)C1CCN(C(=O)[C@H]2C[C@H](c3c(-c4ccc(F)cc4)[nH]c4c(F)cc(F)cc43)C2)CC1	> 1	> 1
O=C(N[C@H]1CC[C@@H]1O)[C@H]1C[C@H](c2c(-c3ccc(F)cc3)[nH]c3c(F)cc(F)cc32)C1	> 1	0.25
Cc1nnc(CNC(=O)[C@H]2C[C@H](c3c(-c4ccc(F)cc4)[nH]c4c(F)cc(F)cc43)C2)o1	0.00025	< 0.25
O=C([C@H]1C[C@H](c2c(-c3ccc(F)cc3)[nH]c3c(F)cc(F)cc32)C1)N1CCN[C@H](CO)C1	> 1	0.25
O=C(N[C@@H]1CC[C@H](O)C1)[C@H]1C[C@H](c2c(-c3ccc(F)cc3)[nH]c3c(F)cc(F)cc32)C1	> 1	> 1
C[C@H]1CN(C(=O)[C@H]2C[C@H](c3c(-c4ccc(F)cc4)[nH]c4c(F)cc(F)cc43)C2)CC[C@@H]1O	> 1	> 1
CC(O)C1CCN(C(=O)[C@H]2C[C@H](c3c(-c4ccc(F)cc4)[nH]c4c(F)cc(F)cc43)C2)CC1 (stereo partly drawn)	> 1	> 1
CC(O)CNC(=O)[C@H]1C[C@H](c2c(-c3ccc(F)cc3)[nH]c3c(F)cc(F)cc32)C1 (stereo partly drawn)	0.00025	0.25
O=C([C@H]1C[C@H](c2c(-c3ccc(F)cc3)[nH]c3c(F)cc(F)cc32)C1)N1CCC(CCO)CC1	> 1	> 1

Structure (SMILES)	IC50 (Apolipoprotein L1) [µM]	IC50 [1] [µM]
NC(=O)[C@H](CO)NC(=O)[C@H]1C[C@H](c2c(-c3ccc(F)cc3)[nH]c3c(F)cc(F)cc32)C1	0.00025	0.25
CCC(O)(CCCO)CNC(=O)[C@H]1C[C@H](c2c(-c3ccc(F)cc3)[nH]c3c(F)cc(F)cc32)C1 (stereo partly drawn)	> 1	> 1
O=C(NC[C@@H](O)C(F)(F)F)[C@H]1C[C@H](c2c(-c3ccc(F)cc3)[nH]c3c(F)cc(F)cc32)C1	0.00025	0.25
C[C@@H](O)CNC(=O)[C@H]1C[C@H](c2c(-c3ccc(F)cc3)[nH]c3c(F)cc(F)cc32)C1	0.00025	0.25
O=C(N[C@H]1CC[C@H]1O)[C@H]1C[C@H](c2c(-c3ccc(F)cc3)[nH]c3c(F)cc(F)cc32)C1	0.00025	0.25
O=C([C@H]1C[C@H](c2c(-c3ccc(F)cc3)[nH]c3c(F)cc(F)cc32)C1)N1CCC(O)(O)CC1	> 1	0.25
CC(C)[C@@H](CO)NC(=O)[C@H]1C[C@H](c2c(-c3ccc(F)cc3)[nH]c3c(F)cc(F)cc32)C1	> 1	> 1
CCN(C(=O)[C@H]1C[C@H](c2c(-c3ccc(F)cc3)[nH]c3c(F)cc(F)cc32)C1)C(C)CO (stereo partly drawn)	> 1	0.25
CN(CC1(CO)CCOCC1)C(=O)[C@H]1C[C@H](c2c(-c3ccc(F)cc3)[nH]c3c(F)cc(F)cc32)C1	> 1	> 1
C[C@@H](O)[C@H](CO)NC(=O)[C@H]1C[C@H](c2c(-c3ccc(F)cc3)[nH]c3c(F)cc(F)cc32)C1	> 1	0.25
O=C([C@H]1C[C@H](c2c(-c3ccc(F)cc3)[nH]c3c(F)cc(F)cc32)C1)N(CCOCCO)C1CCC1	> 1	> 1
O=C(N[C@@H](CO)C(F)(F)F)[C@H]1C[C@H](c2c(-c3ccc(F)cc3)[nH]c3c(F)cc(F)cc32)C1	0.00025	< 0.25
O=C([C@H]1C[C@H](c2c(-c3ccc(F)cc3)[nH]c3c(F)cc(F)cc32)C1)N1CCOC(CO)C1 (stereo partly drawn)	> 1	> 1
NC(=O)[C@H]1CCN(C(=O)[C@H]2C[C@H](c3c(-c4ccc(F)cc4)[nH]c4c(F)cc(F)cc43)C2)C1	> 1	> 1
O=C(N[C@@H]1CCC[C@@H]1O)[C@H]1C[C@H](c2c(-c3ccc(F)cc3)[nH]c3c(F)cc(F)cc32)C1	> 1	0.25
O=C([C@H]1C[C@H](c2c(-c3ccc(F)cc3)[nH]c3c(F)cc(F)cc32)C1)N1CCOCC1CCO (stereo partly drawn)	> 1	> 1
O=C1CC[C@@H](NC(=O)[C@H]2C[C@H](c3c(-c4ccc(F)cc4)[nH]c4c(F)cc(F)cc43)C2)C1	> 1	> 1
O=C([C@H]1C[C@H](c2c(-c3ccc(F)cc3)[nH]c3c(F)cc(F)cc32)C1)N(CCO)c1cnccn1	> 1	> 1
O=C(NCc1cnoc1)[C@H]1C[C@H](c2c(-c3ccc(F)cc3)[nH]c3c(F)cc(F)cc32)C1	0.00025	< 0.25
O=C([C@H]1C[C@H](c2c(-c3ccc(F)cc3)[nH]c3c(F)cc(F)cc32)C1)N1CC2(CC(O)C2)C1	> 1	> 1
